Patent publication US5304474A, “Hydrophobic peptide esters and amides” (Board of Regents, The University of Texas System, priority 1991, dated 1994)
Where two headings read alike, the source gives them in different places. Peptide text beside a SMILES is read from it.

Columns and labels:
[1] = tested on: [^3 H]Leu-Leu-OMe uptake by PBL (facilitated transport); assay: Competitive inhibition of [3H]Leu-Leu-OMe uptake; format: cell-based, human; conditions: for inhibition at 250 µM: Homo sapiens, unlabeled compound 250 microM, [3H]Leu-Leu-OMe 10 microM (Table 5)
Protocol: (§1) Human peripheral blood lymphocytes (PBL) were incubated in the presence of [^3 H]labeled Leu-Leu-OMe at 22° C. for varying lengths of time. The incubation mixture was then centrifuged through silicone oil to separate the cells from any unbound or non-internalized [^3 HLeu-Leu-OMe. […] At 37° C., levels of [^3 H]Leu-Leu-OMe accumulation by PBL were increased above those seen at 22° C. (see Table 4).

[2] = target: T1, dipeptidyl peptidase I (DPPI) (Bos taurus, UniProt Q3ZCJ8); assay: Dipeptidyl peptidase I catalyzed lysis of human RBC; format: cell-based, bovine; conditions: FIG. 12, FIG. 13
T1 sequence (Q3ZCJ8 231-394 limits assumed): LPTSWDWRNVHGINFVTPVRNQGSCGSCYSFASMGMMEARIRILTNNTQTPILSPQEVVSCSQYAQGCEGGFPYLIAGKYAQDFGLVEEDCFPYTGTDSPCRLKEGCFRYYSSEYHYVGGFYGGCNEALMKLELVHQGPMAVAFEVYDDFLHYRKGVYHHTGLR
T1 sequence (Q3ZCJ8 25-134 limits assumed): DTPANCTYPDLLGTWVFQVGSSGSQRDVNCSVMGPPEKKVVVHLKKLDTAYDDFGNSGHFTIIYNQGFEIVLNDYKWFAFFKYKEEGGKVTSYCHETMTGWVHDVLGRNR
T1 sequence (Q3ZCJ8 395-463 limits assumed): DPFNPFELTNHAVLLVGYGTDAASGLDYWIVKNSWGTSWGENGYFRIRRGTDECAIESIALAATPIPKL
Protocol: (§2) The following experiments were carried out to determine whether DPPI could generate a lytic product from Leu-Leu-OMe. In the experiment detailed in FIG. 12, ^51 Cr-labeled human erythrocytes (RBC) were incubated with varying concentrations of Leu-Leu-OMe alone or in the presence of purified bovine DPPI.
In the experiments detailed in FIG. 13, ^51 Cr-labeled RBC's were exposed to various dipeptide esters or amides in the presence or absence of purified DPPI. […] The first observation is probably related to the inability of this enzyme to catalyze transpeptidation of peptide esters containing D-stereoisomers of amino acids. The latter observations are likely to be related to the fact that polymers of Ser-Leu or Leu-Tyr are not hydrophobic and therefore unlikely to enter and disrupt cell membranes.

[3] = tested on: natural killer cells (NK); assay: NK function: lysis of K562 target cells (51Cr release) after preincubation of lymphocytes with compound; conditions: for NK toxicity / effect on NK function, in words: lymphocytes exposed 15 minutes at room temperature (FIG. 4, FIG. 5)
Protocol: PBM were separated from heparinized venous blood of healthy donors by centrifugation over sodium diatrizoate-Ficoll gradients (Isolymph, Gallard-Schlesinger Chemical Mfg. Corp., Carle Place, N.Y.).
All cell exposures to the amino acids, dipeptides or their methyl esters were carried out by suspending cells in Dulbecco's phosphate buffered saline (PBS) and incubating them at room temperature with the reagent at the indicated concentration and time interval.
Percent of control cytotoxicity was calculated using the formula: [formula]

[4] = tested on: production of a TCA insoluble product from [^3 H]Leu-Leu-OMe; format: cell-based, human
Excerpt: Iodoacetamide nonspecifically binds covalently to free sulfhydryl groups and thereby inhibits thiol protease function as well as other enzymatic reactions dependent on the presence of reduced sulfhydryl groups.

human erythrocytes (RBC) = assay: 51Cr release from RBC incubated with peptide ester alone; format: cell-based; conditions: for ^51 Cr Release from RBC: Nil 410 + 12
Protocol: as §2

[5] = target: T1, dipeptidyl peptidase I (DPPI); assay: Polymerization of [3H]Leu-Leu-OMe to a TCA insoluble product by purified enzyme; format: biochemical, bovine
Excerpt: When R1 and R2 are amino acids with nonpolar side groups, such products are very hydrophobic and water insoluble (J. Biol. Chem. 1952; 195:645-656). […] Of note, much lower extracellular concentrations of Leu-Leu-OMe are required for production of a similar product within NK and T8 cells.

[6] = Conversion of [3H]Leu-Leu-OMe in cells to a product which precipitates in 10% TCA; format: in vitro ADME, human; conditions: for Fractional Conversion of [^3 H]Leu--Leu--OMe to a product which Precipitates in 10% TCA: Intact NK, T8 Cells
Protocol: Additional experiments, detailed in Table 7, were performed to assess the metabolic fate of [^3 H]Leu-Leu-OMe within PBL. Cells were incubated with [^3 H]Leu-Leu-OMe for 15 minutes at 22° C. to permit uptake of this compound and then were washed. If the cells were immediately lysed and 10% trichloroacetic acid (TCA) was added to precipitate higher molecular weight cell proteins and nucleic acids, essentially all of the [^3 H]label remained in the supernatant as anticipated for a small molecular weight peptide which is soluble in 10% TCA.
In experiment 1 of Table 8 non-adherent peripheral blood lymphocytes were incubated in the presence or absence of 250 micro-M unlabeled Leu-Leu-OMe for 15 minutes and then cultured overnight at 37° C. This form of exposure to Leu-Leu-OMe has been shown previously herein to result inloss of NK cells and a substantial fraction of CD8(+) T cells, whereas the majority of CD4(+) lymphocytes are resistant to any toxic effects of this agent and remain viable and functionally intact. […] However, when production of a product which precipitated in 10% TCA was assessed following a second incubation at 37° C. for 30 minutes, it was noted that the LLMe resistant subset of lymphocytes produced almost no detectable amounts of this as yet unidentified product.
In experiment 2 (Table 8), PBL were divided into a CD4(+) T cell (T4 cell)-enriched population and a T8, NK-enriched population by staining with anti-CD4 or anti-CD8 monoclonal antibodies and panning on goat anti-mouse coated petri dishes to enrich for the unstained lymphocyte subsets as previously described (see prior Examples and J. Immunol. 1986 136:1038-1048). Again, it was noted that T4 cells took up less [^3 H]Leu-Leu-OMe during an initial incubation than did a population of lymphocytes enriched for T8 and NK cells. However, the differences in production of a product which precipitated in 10% TCA were even more dramatic. Whereas initial [^3 H]Leu-Leu-Me uptake by T4 cells was approximately 53% of that seen with an equal number of T8 and NK cells, the amount of [^3 H]label appearing in a 10% TCA precipitate of the T4 cell sonicate after a subsequent 30 minute incubation was less than 7% of the quantity noted in the TCA precipitable of T8 and NK cell sonicates. Furthermore, little or no TCA insoluble product was produced by other non-lymphoid cell types such as dermal fibroblasts or a renal cell carcinoma line, Cur, which have been previously noted to be resistant to the toxicity of Leu-Leu-OMe (J. Immunol 1986: 136:1038-1048). […] As proteinase K digestion removed this product, it was likely to be a larger peptide or protein into which [^3 H]Leu had been incorporated.

[7] = tested on: peripheral blood lymphocytes (PBL); assay: [3H]Leu-Leu-OMe uptake/binding by lymphocytes; format: in vitro ADME, human
Protocol: as §1

[8] = Expt. 1, Cycloheximide 100 micro-g/ml, PMSF 1 micro-M, Iodoacetamide 0.5 micro-M, Nil 2,160 + 193
[9] = Expt. 1, LLMe Resistant Lymphocytes
[10] = Expt. 1, Non-adherent Lymphocytes
[11] = second 37° C. incubation 15 minutes
[12] = second 37° C. incubation 30 minutes
[13] = second 37° C. incubation 60 minutes

COC(=O)[C@@H](CC(C)C)NC(=O)[C@H](N)CC(C)C [D-Leu-D-Leu-OMe]
competitive inhibition of [3H]Leu-Leu-OMe uptake, in words [1]: do not competitively inhibit PBL uptake of L-Leu-L-Leu-OMe
inhibition at 250 µM [1]: 7%
RBC lysis in the presence of purified DPPI, in words [2]: unable to produce a membrane active metabolite
effect on Leu-Leu-OMe mediated NK toxicity ([3]; added with Leu-Leu-OMe): had no effect on Leu-Leu-OMe mediated NK toxicity
NK toxicity / effect on NK function, in words [3]: had no inhibitory effect

NC(=O)CI [Iodoacetamide, iodoacetamide]
[^3 H]Leu--Leu--OMe Incorporation, 10% TCA Precipitate [4]: 243 + 16 cpm
[^3 H]Leu--Leu--OMe Incorporation, Initial [4]: 6,316 + 188 cpm
[^3 H]Leu--Leu--OMe Incorporation, 10% TCA Precipitate [4, 8]: 140 + 5 cpm

COC(=O)[C@H](CC(C)C)NC(=O)[C@H](CC(C)C)NC(=O)[C@H](CC(C)C)NC(=O)[C@H](CC(C)C)NC(=O)[C@H](CC(C)C)NC(=O)[C@@H](N)CC(C)C [LLLLLLOMe] (H-LLLLLL-OMe)
^51 Cr Release from RBC (human erythrocytes (RBC); 20 micro-M): 698 + 137
^51 Cr Release from RBC (human erythrocytes (RBC); 100 micro-M): 6,129 + 400
^51 Cr Release from RBC (human erythrocytes (RBC); 500 micro-M): 3,531 + 101
damage to RBC by compound alone, in words (human erythrocytes (RBC); no DPPI): Disruption of erythrocyte membranes was observed

COC(=O)[C@H](CC(C)C)NC(=O)[C@H](CC(C)C)NC(=O)[C@H](CC(C)C)NC(=O)[C@@H](N)CC(C)C [LLLLOMe] (H-LLLL-OMe)
^51 Cr Release from RBC (human erythrocytes (RBC); 100 micro-M): 425 + 24
^51 Cr Release from RBC (human erythrocytes (RBC); 500 micro-M): 457 + 41

CC(C)C[C@H](NC(=O)[C@@H](N)CC(C)C)C(=O)O [Leu-Leu, L-leucyl L-leucine, reference compound]
competitive inhibition of [3H]Leu-Leu-OMe uptake, in words [1]: competitively inhibited
inhibition at 250 µM [1]: 44%
RBC lysis in the presence of purified DPPI, in words [2]: not polymerized by DPPI to form a product capable of lysing RBC's
NK toxicity / effect on NK function, in words [3]: had no inhibitory effect

COC(=O)[C@@H](N)CC(C)C [Leu-OMe, L-leucine methyl ester, reference compound]
competitive inhibition of [3H]Leu-Leu-OMe uptake, in words [1]: do not competitively inhibit PBL uptake of L-Leu-L-Leu-OMe
inhibition at 250 µM [1]: -10%
RBC lysis in the presence of purified DPPI, in words [2]: not polymerized by DPPI to form a product capable of lysing RBC's
NK activity ([3]; PBM, 5 mM (FIG. 1)): ablated all NK activity
NK toxicity / effect on NK function, in words [3]: had no irreversible effect on NK function

O=S(=O)(F)Cc1ccccc1 [PMSF, phenylmethylsulfonylfluoride]
[^3 H]Leu--Leu--OMe Incorporation, 10% TCA Precipitate [4, 8]: 2,078 + 213 cpm

COC(=O)[C@H](CC(C)C)NC(=O)[C@@H](N)CC(C)C [[^3 H]Leu--Leu--OMe]
Fractional Conversion of [^3 H]Leu--Leu--OMe to a product which Precipitates in 10% TCA ([5]; 1 micro-M): < 0.01%
Fractional Conversion of [^3 H]Leu--Leu--OMe to a product which Precipitates in 10% TCA ([5]; 10 micro-M): 0.03%
Fractional Conversion of [^3 H]Leu--Leu--OMe to a product which Precipitates in 10% TCA ([5]; 100 micro-M): 0.08%
Fractional Conversion of [^3 H]Leu--Leu--OMe to a product which Precipitates in 10% TCA ([5]; 1000 micro-M): 20.0%
Incorporation, Initial [6, 9]: 7,184 cpm
Incorporation, TCA Precipitate [6, 9]: 50 cpm
TCA Precipitate (% of initial) [6, 9]: 0.7%
Incorporation, Initial [6, 10]: 27,870 cpm
TCA Precipitate (% of initial) [6, 10]: 8.4%
Incorporation, TCA Precipitate ([6]; Expt. 1, Non-adherent Lymphocytes, 30 minutes 37° C.): 2,341 cpm
Incorporation, Initial ([6]; Expt. 2, Fibroblasts): 63,229 cpm
Incorporation, TCA Precipitate ([6]; Expt. 2, Fibroblasts): 293 cpm
TCA Precipitate (% of initial) ([6]; Expt. 2, Fibroblasts): 0.5%
Incorporation, Initial ([6]; Expt. 2, Renal Cell Carcinoma): 35,855 cpm
Incorporation, TCA Precipitate ([6]; Expt. 2, Renal Cell Carcinoma): 267 cpm
TCA Precipitate (% of initial) ([6]; Expt. 2, Renal Cell Carcinoma): 0.7%
Incorporation, Initial ([6]; Expt. 2, T4 Cells): 12,200 cpm
Incorporation, TCA Precipitate ([6]; Expt. 2, T4 Cells): 207 cpm
TCA Precipitate (% of initial) ([6]; Expt. 2, T4 Cells): 1.7%
Incorporation, Initial ([6]; Expt. 2, T8, NK Cells): 22,753 cpm
Incorporation, TCA Precipitate ([6]; Expt. 2, T8, NK Cells): 3,208 cpm
TCA Precipitate (% of initial) ([6]; Expt. 2, T8, NK Cells): 14.1%
initial uptake by T4 cells relative to equal number of T8 and NK cells ([6]; Expt. 2 of Table 8): approximately 53%
Fractional Conversion of [^3 H]Leu--Leu--OMe to a product which Precipitates in 10% TCA ([6]; 1 micro-M): < 0.1%
Fractional Conversion of [^3 H]Leu--Leu--OMe to a product which Precipitates in 10% TCA ([6]; 10 micro-M): < 0.2%
Fractional Conversion of [^3 H]Leu--Leu--OMe to a product which Precipitates in 10% TCA ([6]; 100 micro-M): 11.1%
Fractional Conversion of [^3 H]Leu--Leu--OMe to a product which Precipitates in 10% TCA ([6]; 250 micro-M): 23.2%
[^3 H]Leu--Leu--OMe Total ([6]; PBL, 15 minutes 22° C., second 37° C. incubation 0): 61.4 cpm × 10^-3
label in TCA precipitate of T4 cell sonicate relative to T8 and NK cell sonicates ([6]; after 30 minute incubation): less than 7%
[^3 H]Leu--Leu--OMe TCA Prec. ([6]; second 37° C. incubation 0): 0.5 cpm × 10^-3
[^3 H]Leu--Leu--OMe TCA Prec. [6, 11]: 6.8 cpm × 10^-3
[^3 H]Leu--Leu--OMe Total [6, 11]: 24.9 cpm × 10^-3
[^3 H]Leu--Leu--OMe TCA Prec. [6, 12]: 12.7 cpm × 10^-3
[^3 H]Leu--Leu--OMe Total [6, 12]: 20.6 cpm × 10^-3
[^3 H]Leu--Leu--OMe TCA Prec. [6, 13]: 10.7 cpm × 10^-3
[^3 H]Leu--Leu--OMe Total [6, 13]: 12.7 cpm × 10^-3
[^3 H]Leu--Leu--OMe Uptake/Binding ([7]; Expt. 1, 0° C.): 0.05 micro-moles/10^6 cells
[^3 H]Leu--Leu--OMe Uptake/Binding ([7]; Expt. 1, 22° C.): 0.77 micro-moles/10^6 cells
[^3 H]Leu--Leu--OMe Uptake/Binding ([7]; Expt. 2, 4° C.): 0.02 micro-moles/10^6 cells
[^3 H]Leu--Leu--OMe Uptake/Binding ([7]; Expt. 2, 22° C.): 0.31 micro-moles/10^6 cells
[^3 H]Leu--Leu--OMe Uptake/Binding ([7]; Expt. 2, 37° C.): 0.52 micro-moles/10^6 cells
